# Reference: PubChem BioAssay AID1963980 (Molecular Pharmacology Branch, DTP, NCI, 2024)
# Tested on: 475296-252-R-J1-PDC spheroid viability
# Experiment: Anticancer human tumor 475296-252-R-J1-PDC patient-derived rectal carcinoma cell line growth inhibition [PI3K]
# Conditions: spheroids with HUVEC and MSC; for IC50: curve of first compound; for viability, T/C: stronger effect = lower value
# Outline: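 Spheroid viability read-out. Co-cultures contained the tumor line plus HUVEC and human MSCs. Each agent was paired with a PI3K inhibitor (inavolisib, alpelisib, duvelisib, copanlisib) across half-log dilutions starting at clinical Cmax, or at 10 microM when Cmax was unknown.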
# [1] = second compound 0.00316 µM, first compound 0.0316 µM
# [2] = second compound 0.00316 µM, first compound 0.1 µM
# [3] = second compound 0.00316 µM, first compound 0.316 µM
# [4] = second compound 0.00316 µM, first compound 1 µM
# [5] = second compound 0.00316 µM, first compound 3.16 µM
# [6] = second compound 0.00316 µM, first compound 10 µM
# [7] = second compound 0.01 µM, first compound 0.0316 µM
# [8] = second compound 0.01 µM, first compound 0.1 µM
# [9] = second compound 0.01 µM, first compound 0.316 µM
# [10] = second compound 0.01 µM, first compound 1 µM
# [11] = second compound 0.01 µM, first compound 3.16 µM
# [12] = second compound 0.01 µM, first compound 10 µM
# [13] = second compound 0.0316 µM, first compound 0.0316 µM
# [14] = second compound 0.0316 µM, first compound 0.1 µM
# [15] = second compound 0.0316 µM, first compound 0.316 µM
# [16] = second compound 0.0316 µM, first compound 1 µM
# [17] = second compound 0.0316 µM, first compound 3.16 µM
# [18] = second compound 0.0316 µM, first compound 10 µM
# [19] = second compound 0.1 µM, first compound 0.0316 µM
# [20] = second compound 0.1 µM, first compound 0.1 µM
# [21] = second compound 0.1 µM, first compound 0.316 µM
# [22] = second compound 0.1 µM, first compound 1 µM
# [23] = second compound 0.1 µM, first compound 3.16 µM
# [24] = second compound 0.1 µM, first compound 10 µM
# [25] = second compound 0.316 µM, first compound 0.0316 µM
# [26] = second compound 0.316 µM, first compound 0.1 µM
# [27] = second compound 0.316 µM, first compound 0.316 µM
# [28] = second compound 0.316 µM, first compound 1 µM
# [29] = second compound 0.316 µM, first compound 3.16 µM
# [30] = second compound 0.316 µM, first compound 10 µM
# [31] = second compound 1 µM, first compound 0.0316 µM
# [32] = second compound 1 µM, first compound 0.1 µM
# [33] = second compound 1 µM, first compound 0.316 µM
# [34] = second compound 1 µM, first compound 1 µM
# [35] = second compound 1 µM, first compound 3.16 µM
# [36] = second compound 1 µM, first compound 10 µM
# 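Note: spheroids exposed to agents for seven days before readout.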
smiles,measurement,setting,value
Cn1ncc(Cl)c1-c1cc(C(=O)NC(CN)Cc2cccc(F)c2)sc1Cl (centres undefined) + COc1c(OCCCN2CCOCC2)ccc2c3n(c(=NC(=O)c4cnc(N)nc4)nc12)CCN3,IC50,second compound 0.00316 µM,> 10 µM
same,IC50,second compound 0.01 µM,> 10 µM
same,IC50,second compound 0.0316 µM,2.09 µM
same,IC50,second compound 0.1 µM,2.92 µM
same,IC50,second compound 0.316 µM,1.36 µM
same,IC50,second compound 1 µM,0.888 µM
same,"viability, T/C",[1],86.5%
same,"viability, T/C",[2],70.6%
same,"viability, T/C",[3],80.1%
same,"viability, T/C",[4],67.9%
same,"viability, T/C",[5],66.1%
same,"viability, T/C",[6],55.7%
same,"viability, T/C",[7],93.4%
same,"viability, T/C",[8],91.5%
same,"viability, T/C",[9],62.1%
same,"viability, T/C",[10],58.5%
same,"viability, T/C",[11],59.4%
same,"viability, T/C",[12],59.2%
same,"viability, T/C",[13],82.9%
same,"viability, T/C",[14],89.4%
same,"viability, T/C",[15],90.4%
same,"viability, T/C",[16],59%
same,"viability, T/C",[17],53%
same,"viability, T/C",[18],36.9%
same,"viability, T/C",[19],80%
same,"viability, T/C",[20],79.4%
same,"viability, T/C",[21],72.6%
same,"viability, T/C",[22],56.4%
same,"viability, T/C",[23],54.3%
same,"viability, T/C",[24],27.1%
same,"viability, T/C",[25],69.2%
same,"viability, T/C",[26],69.4%
same,"viability, T/C",[27],62.1%
same,"viability, T/C",[28],54%
same,"viability, T/C",[29],39.5%
same,"viability, T/C",[30],22.5%
same,"viability, T/C",[31],61.4%
same,"viability, T/C",[32],53.8%
same,"viability, T/C",[33],67.8%
same,"viability, T/C",[34],42.4%
same,"viability, T/C",[35],36.1%
same,"viability, T/C",[36],16.4%
CNC(=O)c1ccc(N2C(=S)N(c3ccc(C#N)c(C(F)(F)F)c3)C(=O)C2(C)C)cc1F + COc1c(OCCCN2CCOCC2)ccc2c3n(c(=NC(=O)c4cnc(N)nc4)nc12)CCN3,IC50,second compound 0.00316 µM,> 10 µM
same,IC50,second compound 0.01 µM,> 10 µM
same,IC50,second compound 0.0316 µM,> 10 µM
same,IC50,second compound 0.1 µM,> 10 µM
same,IC50,second compound 0.316 µM,> 10 µM
same,IC50,second compound 1 µM,> 10 µM
same,"viability, T/C",[1],99.1%
same,"viability, T/C",[2],107%
same,"viability, T/C",[3],101%
same,"viability, T/C",[4],95.8%
same,"viability, T/C",[5],103%
same,"viability, T/C",[6],108%
same,"viability, T/C",[7],96.6%
same,"viability, T/C",[8],94.7%
same,"viability, T/C",[9],102%
same,"viability, T/C",[10],97.5%
same,"viability, T/C",[11],100%
same,"viability, T/C",[12],96.2%
same,"viability, T/C",[13],76%
same,"viability, T/C",[14],88.5%
same,"viability, T/C",[15],89.7%
same,"viability, T/C",[16],98.1%
same,"viability, T/C",[17],91.9%
same,"viability, T/C",[18],107%
same,"viability, T/C",[19],75.7%
same,"viability, T/C",[20],68.5%
same,"viability, T/C",[21],83.1%
same,"viability, T/C",[22],81%
same,"viability, T/C",[23],89.4%
same,"viability, T/C",[24],87.3%
same,"viability, T/C",[25],76.6%
same,"viability, T/C",[26],68.1%
same,"viability, T/C",[27],71.7%
same,"viability, T/C",[28],80.9%
same,"viability, T/C",[29],70.5%
same,"viability, T/C",[30],72%
same,"viability, T/C",[31],72.5%
same,"viability, T/C",[32],72%
same,"viability, T/C",[33],50.6%
same,"viability, T/C",[34],60.1%
same,"viability, T/C",[35],63.5%
same,"viability, T/C",[36],61.5%
